From patent US7973219B2, “Method for producing transgenic plants resistant to weed control compounds which disrupt the porphyrin pathways of plants” (Sumitomo Chemical Company, Limited, priority 1998, dated 2011)
Read-outs that look alike come from different tables or passages of the source.

Columns and labels:
[1] = system: control recombinant tobacco; experiment: Leaf piece chlorophyll test, control recombinant tobacco; assay type: in vivo; settings: Nicotiana tabacum, read-out: Resistant level to test compound; for activity at 0.3 ppm: 0.30 ppm
Procedure: (§1) Then, according to the method described in Manual for Gene Manipulation of Plant (by Hirofumi UCHIMIYA, Kodan-sha Scientific, 1992), the gene was introduced into tobacco. Agrobacterium strain bearing plasmid pBIBCH was cultured at 28° C. overnight in LB medium and then leaf pieces of tobacco cultured sterilely were dipped in the liquid culture medium. The leaf pieces were cultured at room temperature for 2 days in Murashige-Skoog medium (MS-medium, described in Murasige T. and Skoog F., Physiol. Plant. (1962) 15, p 473) containing 0.8% agar, 0.1 mg/liter naphthalene acetic acid and 1.0 mg/liter benzyl aminopurine. Then, the leaf pieces were washed with sterilized water and cultured for 7 days on MS medium containing 0.8% agar, 0.1 mg/liter naphthalene acetic acid, 1.0 mg/liter benzyl aminopurine and 500 μg/ml cefotaxime. The leaf pieces were transplanted onto MS medium containing 0.8% agar, 0.1 mg/liter naphthalene acetic acid, 1.0 mg/liter benzyl aminopurine, 500 μg/ml cefotaxime and 100 μg/ml kanamycin (hereinafter referred to as selective MS medium) and cultured on the medium continuously for 4months with transplanting the tobacco leaf pieces onto fresh selective MS medium every 1 month. During culture, stem-leaf differentiated shoots were appeared from the tobacco leaf pieces, these shoots were transplanted to MS medium containing 0.8% agar, 300 μg/ml cefotaxime and 50 μg/ml kanamycin to induce roots to obtain regenerated plants. The resultant regenerated plant was transplanted and cultured on MS medium 0.8% agar and 50 μg/ml kanamycin to obtain tobacco plant into which bchH gene was introduced. Similarly, tobacco leaf pieces were infected with Agrobacterium strain bearing pNO to obtain regenerated plant from the tobacco leaf pieces and tobacco plant (hereinafter referred to as control recombinant tobacco).
(§2) The tobacco leaves into which bchH gene was introduced and control recombinant tobacco leaves obtained in Example 5 were collected and each leaf was divided into the right and left equivalent pieces along the main vein, respectively. To one piece was applied an aqueous solution containing 0.3 ppm PPO inhibitory-type herbicidal compound of Structure 8, while, to the other piece was not applied the compound. These leaf pieces were placed on MS medium containing 0.8% agar and allowed to stand at room temperature for 7 days in light place. Then, each leaf piece was ground with pestle and mortar in 5 ml of 80% aqueous acetone solution to extract chlorophyll. The extract liquid was diluted with 80% aqueous acetone solution and the absorbance was measured at 750 nm, 663 nm and 645 nm to calculate total chlorophyll content according to the method described by Macknney G., J. Biol. Chem. (1941) 140, p 315. The results obtained from 4 clones of tobacco into which bchH gene was introduced (BCH1 to 4) and control recombinant tobacco is shown in Table 4. In the table, the resistant level to the herbicidal compound was represented by percentages of the total chlorophyll content of leaf pieces treated with herbicidal compound to that of untreated leaf pieces.
(§3) The tobacco clone into which bchH gene was introduced and control recombinant tobacco were also treated in the same manner with the solution containing PPO inhibitory-type herbicidal compound represented by the above Structure 3, 7, 10, 11, 13, 17, 23, 24, 25, 27, 28, 30 or 35, and the resistant level to each herbicidal compound was measured. In the table, the resistant levels to the herbicidal compound were represented by percentages of the total chlorophyll content of leaf pieces treated with the herbicidal compound to that of untreated leaf pieces.
The level of resistance to PPO inhibitory type herbicidal compound represented by Structure 8 was confirmed quantitatively by testing tobacco into which the gene encoding the variant soybean PPO prepared in Example 13 was introduced according to the same manner as in Example 6. […]

[2] = system: tobacco into which bchH gene was introduced; experiment: Leaf piece chlorophyll test, tobacco into which bchH gene was introduced; assay type: in vivo; settings: Nicotiana tabacum, read-out: Resistant level to test compound; for activity at 0.3 ppm: 0.30 ppm
Procedure: as §1, §2, §3

[3] = control recombinant tobacco, treated vs untreated leaf pieces, Table 5
[4] = bchH recombinant tobacco, treated vs untreated leaf pieces, Table 5

| Compound | activity at 0.3 ppm [1, 3] [%] | activity at 0.3 ppm [2, 4] [%] | activity at 10 ppm [1, 3] [%] | activity at 10 ppm [2, 4] [%] | also measured |
| --- | --- | --- | --- | --- | --- |
| C#CCN1C(=O)COc2cc(F)c(N3C(=O)C4=C(CCCC4)C3=O)cc21 [Structure 11] | 5.51 | 78.1 | – | – | – |
| O=[N+]([O-])c1ccc(Oc2c(Cl)cc(Cl)cc2Cl)cc1 [Structure 7] | – | – | – | – | activity at 30 ppm ([1]; control recombinant tobacco, 30 ppm, treated vs untreated leaf pieces, Table 5): 8.62%; activity at 30 ppm ([2]; bchH recombinant tobacco, 30 ppm, treated vs untreated leaf pieces, Table 5): 89.3% |
| CC(C)Oc1cc(-n2nc(C(C)(C)C)oc2=O)c(Cl)cc1Cl [Structure 25] | – | – | 16 | 104 | – |
| CCOC(=O)C(C)OC(=O)c1cc(Oc2ccc(C(F)(F)F)cc2Cl)ccc1[N+](=O)[O-] (stereo not drawn) [Structure 3] | – | – | 9.94 | 114 | – |
| C#CCOc1cc(-n2nc(C(C)(C)C)oc2=O)c(Cl)cc1Cl [Structure 24] | – | – | 5.18 | 129 | – |
| C#CCOc1cc(-n2ncc(C(F)(F)F)c(C)c2=O)c(F)cc1Cl [Structure 28] | 8.79 | 72.2 | – | – | – |
| C#CCOc1cc(-n2nc3n(c2=O)CCCC3)c(Cl)cc1Cl [Structure 23] | – | – | – | – | activity at 3 ppm ([1]; control recombinant tobacco, 3.0 ppm, treated vs untreated leaf pieces, Table 5): 5.58%; activity at 3 ppm ([2]; bchH recombinant tobacco, 3.0 ppm, treated vs untreated leaf pieces, Table 5): 106% |
| CCCCCOC(=O)COc1cc(N2C(=O)C3=C(CCCC3)C2=O)c(F)cc1Cl [Structure 10] | – | – | 14.9 | 84 | – |
| C#CCN1C(=O)COc2cc(F)c(-c3cnc(C(F)(F)F)n(C)c3=O)cc21 [Structure 35] | 17.4 | 83.3 | – | – | – |
| CCOC(=O)COc1cc(-c2nn(C)c(OC(F)F)c2Cl)c(F)cc1Cl [Structure 30] | – | – | – | – | activity at 3 ppm [1]: 4.24%; activity at 3 ppm [2]: 102% |
| CCOC(=O)COc1cc(-n2ncc(C(F)(F)F)c(C)c2=O)c(F)cc1Cl [Structure 27] | – | – | 16.8 | 86.8 | – |
| C#CCN1C(=O)COc2cc(F)c(-n3c(=O)cc(C(F)(F)F)n(C)c3=O)cc21 [Structure 17] | 14.3 | 80.4 | – | – | – |
